Measurements published in US20230066946A1, “1,5-DIPHENYLPYRAZOLYL-3-OXYALKYL ACIDS AND 1-PHENYL-5-THIENYLPYRAZOLYL-3-OXYALKYL ACIDS AND THE USE THEREOF FOR CONTROL OF UNWANTED PLANT GROWTH” (Bayer Aktiengesellschaft, priority 2019, published 2023).
“And” between values parts separate entries of the source, which are not always exact repeats. Equal entries are not always repeated.

Legend:
[1] = system: ALOMY; test: Pre-emergence herbicidal action against ALOMY; format: in vivo, Alopecurus myosuroides; details: scored visually after about 3 weeks vs untreated controls, 100% = plants have died, 0% = like control plants
Procedure, shortened: (§1)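 Greenhouse pot test on sown, soil-covered weed seeds; spray of WP or EC formulation at 1280 or 320 g/ha onto covering soil. Effect rated visually after about 3 weeks (0% = like control, 100% = dead).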

[2] = system: MATIN; test: Post-emergence herbicidal action against MATIN; format: in vivo, Matricaria inodora; details: visual rating about 3 weeks after treatment
Procedure, shortened: (§2)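 Rates of 1280 or 320 g/ha were sprayed onto green parts of one-leaf-stage plants grown in sandy loam pots, with 0.5% additive and 600 litres per hectare water. After about 3 weeks under optimum greenhouse conditions, activity is rated visually: 100% = dead plants, 0% = as control.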

[3] = system: ECHCG; test: Post-emergence herbicidal action against ECHCG; format: in vivo, Echinochloa crus-galli; details: 1280 g/ha, post-emergence at one-leaf stage, rated visually after about 3 weeks vs untreated controls
Procedure, shortened: as §2

[4] = system: VIOTR; test: Post-emergence herbicidal action against VIOTR; format: in vivo, Viola tricolor; details: 320 g/ha, visual rating about 3 weeks after treatment
Procedure, shortened: as §2

[5] = system: HORMU; test: Post-emergence herbicidal action against HORMU; format: in vivo, Hordeum murinum; details: 320 g/ha, visual rating about 3 weeks after treatment
Procedure, shortened: as §2

[6] = system: SETVI; test: Pre-emergence herbicidal action against SETVI; format: in vivo, Setaria viridis; details: 1280 g/ha, scored visually after about 3 weeks vs untreated controls
Procedure, shortened: as §1

[7] = system: STEME; test: Post-emergence herbicidal action against STEME; format: in vivo, Stellaria media; details: visual rating about 3 weeks after treatment
Procedure, shortened: as §2

[8] = system: ALOMY; test: Post-emergence herbicidal action against ALOMY; format: in vivo, Alopecurus myosuroides; details: 1280 g/ha, post-emergence at one-leaf stage, rated visually after about 3 weeks vs untreated controls
Procedure, shortened: as §2

[9] = system: LOLRI; test: Post-emergence herbicidal action against LOLRI; format: in vivo, Lolium rigidum; details: 1280 g/ha, post-emergence at one-leaf stage, rated visually after about 3 weeks vs untreated controls
Experimental: (§3) [table] Seeds of mono- and dicotyledonous weed plants are placed in plastic pots in sandy loam soil (twin sowing with one species each of mono- or dicotyledonous weed plants per pot), covered with soil and cultivated in a greenhouse under controlled growth conditions. 2 to 3 weeks after sowing, the test plants are treated at the one-leaf stage. The compounds of the invention, formulated in the form of wettable powders (WP) or as emulsion concentrates (EC), are applied to the green parts of the plants as aqueous suspension or emulsion with addition of 0.5% additive at a water application rate equivalent to 600 litres per hectare. After the test plants have been kept in the greenhouse under optimum growth conditions for about 3 weeks, the activity of the preparations is rated visually in comparison to untreated controls. For example, 100% activity=the plants have died, 0% activity=like control plants. Tables 5.1-5.16 below show the effects of selected compounds of the general formula (I) according to Tables 1 to 3 on various harmful plants at an application rate corresponding to 1280 or 320 g/ha, which have been obtained by the aforementioned experimental method.

[10] = system: harmful plants; test: Pre-emergence herbicidal action, summary of Tables 4.1-4.15; format: in vivo; details: result in words
Procedure, shortened: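 Percent herbicidal action (100% = plants dead, 0% = like controls) was assessed visually about 3 weeks after treatment. Application rates of 1280 or 320 g/ha were applied to the covering soil of freshly sown sandy-loam pots, in 600 l/ha water with 0.5% additive, before emergence.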

[11] = system: AVEFA; test: Pre-emergence herbicidal action against AVEFA; format: in vivo, Avena fatua; details: scored visually after about 3 weeks vs untreated controls, 100% = plants have died, 0% = like control plants
Excerpt: (§4) Seeds of mono- and dicotyledonous weed plants are placed in plastic pots in sandy loam soil (doubly sown with one species each of mono- or dicotyledonous weed plants per pot) and covered with soil. The compounds of the invention, formulated in the form of wettable powders (WP) or as emulsion concentrates (EC), are then applied onto the surface of the covering soil as aqueous suspension or emulsion with addition of 0.5% additive at a water application rate equivalent to 600 litres per hectare. After the treatment, the pots are placed in a greenhouse and kept under good growth conditions for the trial plants. After about 3 weeks, the effect of the preparations is scored visually in comparison with untreated controls as percentages. For example, 100% activity=the plants have died, 0% activity=like control plants. [table] Tables 4.1-4.15 below show the effects of selected compounds of the general formula (I) according to Tables 1 to 3 on various harmful plants at an application rate corresponding to 1280 or 320 g/ha, which have been obtained by the aforementioned experimental method.

[12] = system: CYPES; test: Pre-emergence herbicidal action against CYPES; format: in vivo, Cyperus esculentus; details: scored visually after about 3 weeks vs untreated controls, 100% = plants have died, 0% = like control plants
Procedure, shortened: as §1

[13] = system: ECHCG; test: Pre-emergence herbicidal action against ECHCG; format: in vivo, Echinochloa crus-galli; details: scored visually after about 3 weeks vs untreated controls, 100% = plants have died, 0% = like control plants
Procedure, shortened: as §1

[14] = system: STEME; test: Pre-emergence herbicidal action against STEME; format: in vivo, Stellaria media; details: scored visually after about 3 weeks vs untreated controls
Procedure, shortened: as §1

[15] = system: MATIN; test: Pre-emergence herbicidal action against MATIN; format: in vivo, Matricaria inodora; details: 1280 g/ha, scored visually after about 3 weeks vs untreated controls
Procedure, shortened: as §1

[16] = system: AMARE; test: Pre-emergence herbicidal action against AMARE; format: in vivo, Amaranthus retroflexus; details: scored visually after about 3 weeks vs untreated controls; for Pre-emergence action at 320 g/ha against AMARE in %: 100% = plants have died, 0% = like control plants; for Pre-emergence action against AMARE in %: 1280 g/ha
Procedure, shortened: as §1

[17] = system: VIOTR; test: Pre-emergence herbicidal action against VIOTR; format: in vivo, Viola tricolor; details: 1280 g/ha, scored visually after about 3 weeks vs untreated controls
Procedure, shortened: as §1

[18] = system: VERPE; test: Post-emergence herbicidal action against VERPE; format: in vivo, Veronica persica; details: 320 g/ha, visual rating about 3 weeks after treatment
Procedure, shortened: as §2

[19] = system: AVEFA; test: Post-emergence herbicidal action against AVEFA; format: in vivo, Avena fatua; details: 1280 g/ha, post-emergence at one-leaf stage, rated visually after about 3 weeks vs untreated controls
Experimental: as §3

[20] = system: PHBPU; test: Post-emergence herbicidal action against PHBPU; format: in vivo, Pharbitis purpurea; details: 320 g/ha, visual rating about 3 weeks after treatment
Procedure, shortened: as §2

[21] = system: AMARE; test: Post-emergence herbicidal action against AMARE; format: in vivo, Amaranthus retroflexus; details: visual rating about 3 weeks after treatment
Procedure, shortened: as §2

[22] = system: SETVI; test: Post-emergence herbicidal action against SETVI; format: in vivo, Setaria viridis; details: 1280 g/ha, post-emergence at one-leaf stage, rated visually after about 3 weeks vs untreated controls
Procedure, shortened: as §2

[23] = system: HORMU; test: Pre-emergence herbicidal action against HORMU; format: in vivo, Hordeum murinum; details: 320 g/ha, scored visually after about 3 weeks vs untreated controls
Excerpt: as §4

[24] = system: POLCO; test: Post-emergence herbicidal action against POLCO; format: in vivo, Polygonum convolvulus; details: 320 g/ha, visual rating about 3 weeks after treatment
Procedure, shortened: as §2

[25] = system: POLCO; test: Pre-emergence herbicidal action against POLCO; format: in vivo, Polygonum convolvulus; details: 320 g/ha, scored visually after about 3 weeks vs untreated controls
Procedure, shortened: as §1

[26] = system: VERPE; test: Pre-emergence herbicidal action against VERPE; format: in vivo, Veronica persica; details: 320 g/ha, scored visually after about 3 weeks vs untreated controls
Procedure, shortened: as §1

[27] = system: PHBPU; test: Pre-emergence herbicidal action against PHBPU; format: in vivo, Pharbitis purpurea; details: 1280 g/ha, scored visually after about 3 weeks vs untreated controls
Excerpt: as §4

| Compound | Pre-emergence action at 1280 g/ha against ALOMY in % [1] [%] | Post-emergence action against MATIN in % ([2]; 1280 g/ha) [%] | Post-emergence action against HORMU in % [5] [%] | Pre-emergence action against SETVI in % [6] [%] | Post-emergence action against STEME in % ([7]; 320 g/ha) [%] | Post-emergence action against STEME in % ([7]; 1280 g/ha) [%] | Post-emergence action against ALOMY in % [8] [%] | Post-emergence action against LOLRI in % [9] [%] | herbicidal efficacy against harmful plants in the case of pre-emergence treatment [10] | Pre-emergence action at 1280 g/ha against AVEFA in % [11] [%] | Pre-emergence action at 1280 g/ha against CYPES in % [12] [%] | Pre-emergence action at 1280 g/ha against ECHCG in % [13] [%] | Pre-emergence action against STEME in % ([14]; 1280 g/ha) [%] | Pre-emergence action against MATIN in % [15] [%] | Pre-emergence action at 320 g/ha against AMARE in % [16] | Pre-emergence action against AMARE in % [16] [%] | Pre-emergence action against VIOTR in % [17] [%] | Post-emergence action against VERPE in % [18] [%] | Post-emergence action against AVEFA in % [19] [%] | Post-emergence action against MATIN in % ([2]; 320 g/ha) [%] | other results |
| --- | --- | --- | --- | --- | --- | --- | --- | --- | --- | --- | --- | --- | --- | --- | --- | --- | --- | --- | --- | --- | --- |
| COC(=O)C(C)Oc1nn(-c2cccc(F)c2)c(-c2cccc(F)c2)c1C#N (stereo not drawn) [I-067] | 90 | 80 | 80 | 100 | 80 | 90 | 100 | 90 | good herbicidal efficacy | 80 | 90 | 80 | 90 | 90 | 90% | 100 | 100 | – | – | – | Post-emergence action against ECHCG in % [3]: 90%; Post-emergence action against VIOTR in % [4]: 80% |
| CCOC(=O)COc1nn(-c2ccccc2)c(-c2ccc(F)cc2)c1Br [I-056] | 90 | 80 | – | 100 | – | 90 | 90 | – | good herbicidal efficacy | 80 | 90 | – | 100 | 90 | 80% | 100 | 80 | 90 | 90 | 80 | Post-emergence action against PHBPU in % [20]: 80%; Post-emergence action against AMARE in % ([21]; 320 g/ha): 80%; Post-emergence action against AMARE in % ([21]; 1280 g/ha): 80%; Post-emergence action against SETVI in % [22]: 80%; Pre-emergence action against HORMU in % [23]: 80%; Post-emergence action against POLCO in % [24]: 80%; Pre-emergence action against POLCO in % [25]: 80% |
| O=C(O)COc1nn(-c2ccccc2)c(-c2ccc(F)cc2)c1Br [I-057] | 90 | 90 | 80 | 90 | 80 | 90 | 90 | 80 | good herbicidal efficacy | 80 | – | 80 | 100 | 100 | 100% and 90% | 100 | 100 | 80 | 90 | 80 | Post-emergence action against PHBPU in % [20]: 90%; Post-emergence action against AMARE in % ([21]; 320 g/ha): 80%; Post-emergence action against AMARE in % ([21]; 1280 g/ha): 80%; Pre-emergence action against VERPE in % [26]: 90%; Pre-emergence action against STEME in % ([14]; 320 g/ha): 80%; Post-emergence action against POLCO in % [24]: 80%; Pre-emergence action against PHBPU in % [27]: 90%; Pre-emergence action against POLCO in % [25]: 90% |
